Structures are written as SMILES. Entries after “also recorded” stand apart in the source; their conditions may differ.

The test system of one series is HCV2a virus. The series can be described thus: HCV IF antiviral assay. Format: cell-based, Hepatitis C virus.
Series [1] concerns Murine Encephalomyocarditis virus (EMCV). Nature of the series: EMCV antiviral assay (cell viability by MTS after infection). As to conditions: Huh7 cells, 250 pfu EMCV, 18 hours.
Another series has as its system Huh7 cells. Nature of the series: MTS assay to determine cytotoxicity. The series is classed as cell-based, human. As to conditions: 24 hours, up to 50 μM. As to the method: MTS assay to determine cytotoxicity. Cultured human Huh7 cells are treated with increasing amounts of KIN600 or equivalent amounts of DMSO diluted in media for 24 hours to see their effect on cell viability.
Cell Titer One (Promega) is the one step reagent used according to manufacturer's protocol, and cells are incubated for three hours in the presence of reagent before O.D. reading is done. Compounds were diluted to final concentrations of 0, 5, 10, 20, and 50 μM in media containing 0.5% DMSO. Negative control wells contain no compound and positive control for cytotoxicity is examined using an EMCV infection which causes 100% cytopathic effect. Each compound concentration and control is done in triplicate wells to generate error bars.
Final KIN600 concentrations of 50 μM, 20 μM, 10 μM, and 5 μM were made in 0.5% DMSO containing media and were added to Huh7 cells to examine cytotoxicity in a MTS assay. Cells were treated for 24 hours with varying concentrations of compound and were analyzed for cell viability compared to negative control samples that were not treated with compound but grown in DMSO containing media. The cellular metabolism (O.D.) was in the range of 1.75 to below 2.0 at compound concentrations of 50 μM, 20 μM, 10 μM, 5 μM, and 0.

As to `COC(=O)c1sccc1S(=O)(=O)Nc1ccc2c(c1)OCO2` [KIN600], in the series with HCV2a virus (Huh7 cells pre-treated 24 hours at 10 μM, HCV2a MOI 0.1-0.5), the “HCV infected foci (number of FFU/well)” value was found to be 12±4 FFU/well. The “antiviral activity against HCV (result in words)” value with HCV2a virus (Huh7 cells, HCV2a) is “showed antiviral activity; also recorded: has antiviral properties”. For the same compound, the figures for the Cell viability post-infection in series [1] (5 μL) and in series [1] (10 μL) were roughly 0.7 and roughly 1.4, respectively. The “cytotoxicity (result in words)” value in the series on Huh7 cells is recorded as “no significant cytotoxicity; also recorded: no significant toxicity”.

(Values after patent publication US8895608B2, “Sulfonamide anti-viral compounds” (Kineta, Inc., priority 2010, dated 2014).)
